Assay: In vitro inhibition of EGF-stimulated DNA synthesis of ER 22 cells by following the incorporation of methyl-[3H]thymidine.

Row | Compound | IC50
1 | O=C(NCc1ccccc1)c1ccc(-c2cc(O)cc(-c3ccccc3)c2)cc1 | 8 µM
2 | CC(COC(=O)c1ccc(-c2cc(O)cc(C(C)(C)C)c2)cc1)CC(C)(C)C (stereo not given) | > 5 µM
3 | COC(=O)c1ccc(-c2ccc(C(C)(C)C)cc2O)cc1 | > 5 µM
4 | O=C(O)c1ccc(-c2cc(O)cc(-c3ccccc3)c2)cc1 | 10 µM
5 | CC(COC(=O)c1ccc(-c2cc(O)cc(-c3ccccc3)c2)cc1)CC(C)(C)C (stereo not given) | > 5 µM
6 | COCOc1c(-c2ccccc2)cccc1-c1ccc(C(=O)OCC(C)CC(C)(C)C)cc1 (stereo not given) | > 10 µM
7 | CC(COC(=O)c1ccc(-c2cccc(-c3ccccc3)c2O)cc1)CC(C)(C)C (stereo not given) | > 10 µM
8 | O=C(NCc1ccccc1)c1ccc(-c2ccc(-c3ccccc3)cc2O)cc1 [2'-Hydroxy-[1,1';4',1'']terphenyl-4-carboxylic acid benzylamide] | 1.4 µM
9 | CC(C)(C)c1cc(O)cc(-c2ccc(C(=O)NCc3ccccc3)cc2)c1 [3'-tert-Butyl-5'-hydroxy-biphenyl-4-carboxylic acid benzylamide] | 5.4 µM
10 | CC(C)(C)c1cc(O)cc(-c2ccc(C(=O)O)cc2)c1 [3'-tert-Butyl-5'-hydroxy-biphenyl-4-carboxylic acid] | > 20 µM

The remaining lines, values ahead:

Row | IC50 | Compound
11 | 10 µM | COCOc1cc(-c2ccccc2)ccc1-c1ccc(C(=O)O)cc1
12 | > 5 µM | COCOc1cc(-c2ccccc2)ccc1-c1ccc(C(=O)OC)cc1
13 | > 5 µM | COC(=O)c1ccc(-c2cccc(-c3ccccc3)c2O)cc1 [2'-Hydroxy-[1,1';3',1'']terphenyl-4-carboxylic acid methyl ester]
14 | 1.1 µM | COCOc1cc(-c2ccccc2)ccc1-c1ccc(C(=O)NCc2ccccc2)cc1 [2'-Methoxymethoxy-[1,1';4',1'']terphenyl-4-carboxylic acid benzylamide]
15 | 10 µM | COCOc1cc(C(C)(C)C)ccc1-c1ccc(C(=O)OC)cc1 [4'-tert-Butyl-2'-methoxymethoxy-biphenyl-4-carboxylic acid methyl ester]

Source: BindingDB's records for doi:10.1021/jm00023a009 (University of Paris, 1995)
